Source: patent US9422264B2, “Carbamate-substituted oxindole derivatives and use thereof for the treatment of vasopressin-dependent diseases” (AbbVie Deutschland GmbH & Co. KG, priority 2007, dated 2016)
Structures can show the parent of a compound that is named as a salt.

Assays:
[1] = target: T1, human vasopressin V1b receptor (Homo sapiens, UniProt P47901); experiment: Vasopressin V1b receptor binding assay; conditions: read-out: Ki(h-V1b)*
T1 construct: expressed in transfected cells; host or cells: CHO-K1 (cell line hV1b_3H2_CHO)
T1 sequence (P47901 1-424): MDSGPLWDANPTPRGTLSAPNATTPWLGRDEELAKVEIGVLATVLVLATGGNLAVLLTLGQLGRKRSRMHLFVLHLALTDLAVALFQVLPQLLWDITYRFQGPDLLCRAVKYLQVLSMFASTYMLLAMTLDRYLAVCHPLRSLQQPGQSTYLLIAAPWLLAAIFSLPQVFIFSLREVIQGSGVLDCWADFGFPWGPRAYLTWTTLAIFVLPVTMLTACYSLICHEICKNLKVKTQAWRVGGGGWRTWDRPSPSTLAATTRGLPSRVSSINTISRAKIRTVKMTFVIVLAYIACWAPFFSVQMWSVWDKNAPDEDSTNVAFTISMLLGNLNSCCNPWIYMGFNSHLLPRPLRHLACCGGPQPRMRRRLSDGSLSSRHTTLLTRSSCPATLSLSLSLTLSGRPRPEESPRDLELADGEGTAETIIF
Procedure: 1. Vasopressin V1b Receptor Binding Assay:
The substance concentration was further diluted 1:5 in the assay mixture (2% DMSO in the mixture).
All determinations were carried out as triplicate determinations.

[2] = target: T2, recombinant human oxytocin receptors (Homo sapiens, UniProt P30559); experiment: Oxytocin receptor binding assay; conditions: selectivity quotient, human OT versus human V1b
T2 construct: expressed in transfected cells; host or cells: HEK-293 (transient)
T2 sequence (P30559 1-389): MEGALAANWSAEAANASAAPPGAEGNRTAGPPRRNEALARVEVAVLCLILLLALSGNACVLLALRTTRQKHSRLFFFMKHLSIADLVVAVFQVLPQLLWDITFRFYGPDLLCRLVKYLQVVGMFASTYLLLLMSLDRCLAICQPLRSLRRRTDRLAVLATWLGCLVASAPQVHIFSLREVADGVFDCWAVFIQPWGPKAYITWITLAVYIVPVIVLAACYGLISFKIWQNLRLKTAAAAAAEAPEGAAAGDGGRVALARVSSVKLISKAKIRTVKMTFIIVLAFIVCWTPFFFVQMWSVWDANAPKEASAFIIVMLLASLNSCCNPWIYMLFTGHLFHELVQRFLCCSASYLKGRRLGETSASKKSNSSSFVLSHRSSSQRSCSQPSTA
Procedure: 4. Oxytocin Receptor Binding Assay
Confluent HEK-293 cells with transiently expressing recombinant human oxytocin receptors were centrifuged at 750×g at room temperature for 5 minutes. The residue was taken up in ice-cold lysis buffer (50 mM Tris-HCl, 10% glycerol, pH 7.4 and Roche complete protease inhibitor) and subjected to an osmotic shock at 4° C. for 20 minutes. The lyzed cells were then centrifuged at 750×g at 4° C. for 20 minutes, the residue was taken up in incubation buffer, and aliquots of 10^7 cells/ml were prepared. The aliquots were frozen at −80° C. until used.
On the day of the experiment, the cells were thawed, diluted with incubation buffer and homogenized using a Multipette Combitip (Eppendorf, Hamburg). […] The nonspecific binding was determined with 10^−6 M oxytocin (Bachem AG, H2510). Triplicate determinations were set up. Bound and free radioligand were separated by filtration under vacuum with Whatman GF/B glass fiber filters with the aid of a Skatron cell harvester 7000. The bound radioactivity was determined by liquid scintillation measurement in a Tricarb Beta counter, model 2000 or 2200CA (Packard).

[3] = Determination of the microsomal half-life / microsomal clearance (human liver microsomes); type: in vitro ADME; conditions: pH 7.4, 0.5 μM test substance
Procedure: 5. Determination of the Microsomal Half-Life:
The metabolic stability of the compounds of the invention was determined in the following assay.
The test substances were incubated in a concentration of 0.5 μM as follows:
0.5 μM test substance are preincubated together with liver microsomes from different species (from rat, human or other species) (0.25 mg of microsomal protein/ml) in 0.05 M potassium phosphate buffer of pH 7.4 in microtiter plates at 37° C. for 5 min. The reaction is started by adding NADPH (1 mg/mL). After 0, 5, 10, 15, 20 and 30 min, 50 μl aliquots are removed, and the reaction is immediately stopped and cooled with the same volume of acetonitrile. The samples are frozen until analyzed. The remaining concentration of undegraded test substance is determined by MSMS. The half-life (T½) is determined from the gradient of the signal of test substance/unit time plot, it being possible to calculate the half-life of the test substance, assuming first order kinetics, from the decrease in the concentration of the compound with time. The microsomal clearance (mCl) is calculated from mCl=In2/T½/(content of microsomal protein in mg/ml)×1000 […] (modified from references: Di, The Society for Biomoleculur Screening, 2003, 453-462; Obach, DMD, 1999 vol. 27. N 11, 1350-1359).

[4] = target: human vasopressin V1a receptor (Homo sapiens, UniProt P37288); experiment: Vasopressin V1a receptor binding assay; conditions: selectivity quotient, human V1a versus human V1b
Sequence of human vasopressin V1a receptor (P37288 whole entry): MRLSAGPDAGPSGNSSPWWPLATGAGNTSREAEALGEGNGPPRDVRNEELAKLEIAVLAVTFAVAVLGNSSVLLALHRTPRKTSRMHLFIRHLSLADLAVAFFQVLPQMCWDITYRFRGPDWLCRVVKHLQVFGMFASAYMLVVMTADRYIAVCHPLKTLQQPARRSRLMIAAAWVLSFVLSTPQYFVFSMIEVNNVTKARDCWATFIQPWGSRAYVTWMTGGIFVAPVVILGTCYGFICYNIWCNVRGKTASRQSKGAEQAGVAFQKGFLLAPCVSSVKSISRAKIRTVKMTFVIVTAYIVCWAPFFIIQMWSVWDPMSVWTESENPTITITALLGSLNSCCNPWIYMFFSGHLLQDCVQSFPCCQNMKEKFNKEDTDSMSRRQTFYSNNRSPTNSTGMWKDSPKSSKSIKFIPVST

Ki [1] [nM]	Ki(h-OT)/Ki(h-V1b)* [2]	microsomal CLint at 0.5 μM [3] [µL/min/mg]	Ki(h-V1a)/Ki(h-V1b)* [4]	Compound
< 10	+++ (>45)	75 to 200	+++ (>75)	CCOc1ncccc1C1(OC(=O)N2CCN(C3CCN(C)CC3)CC2)C(=O)N(S(=O)(=O)c2ccc(OC)cc2OC)c2ccc(C#N)cc21 (racemic) [Example 1, (±)-5-Cyano-1-[(2,4-dimethoxyphenyl)sulfonyl]-3-(2-ethoxypyridin-3-yl)-2-oxo-2,3-dihydro-1H-indol-3-yl-4-(1-methylpiperidin-4-yl)piperazine-1-carboxylate]
< 10	+ (15-25)	50 to 75	+++ (>75)	CCOc1ncccc1C1(OC(=O)N2CCN(C3CCNCC3)CC2)C(=O)N(S(=O)(=O)c2ccc(OC)cc2OC)c2ccc(C#N)cc21 (racemic) [Example 25, (±)-5-Cyano-1-[(2,4-dimethoxyphenyl)sulfonyl]-3-(2-ethoxypyridin-3-yl)-2-oxo-2,3-dihydro-1H-indol-3-yl-4-piperidin-4-ylpiperazine-1-carboxylate as bis(trifluoroacetic acid) salt]
< 10	+ (15-25)	75 to 200	++ (>25-75)	CCOc1ncccc1C1(OC(=O)N2CCC(N3CCNCC3)CC2)C(=O)N(S(=O)(=O)c2ccc(OC)cc2OC)c2ccc(C#N)cc21 (stereo not drawn) [Example 55, 5-Cyano-1-[(2,4-dimethoxyphenyl)sulfonyl]-3-(2-ethoxypyridin-3-yl)-2-oxo-2,3-dihydro-1H-indol-3-yl-4-piperazin-1-ylpiperidine-1-carboxylate as bis(trifluoroacetic acid) salt]
10 to 50	+++ (>45)	75 to 200	++ (>25-75)	CCOc1ncccc1C1(OC(=O)N2CCC(N3CCN(C)CC3)CC2)C(=O)N(S(=O)(=O)c2ccccc2OC)c2ccc(C#N)cc21 (racemic) [Example 32, (±)-5-Cyano-3-(2-ethoxypyridin-3-yl)-1-[(2-methoxyphenyl)sulfonyl]-2-oxo-2,3-dihydro-1H-indol-3-yl 4-(4-methylpiperazin-1-yl)piperidine-1-carboxylate]
< 10	+++ (>45)	< 50	+++ (>75)	CCOc1ncccc1C1(OC(=O)N2CCN(C3CCN(CC)CC3)CC2)C(=O)N(S(=O)(=O)c2ccccc2)c2ccc(C#N)cc21.O=C(O)C(F)(F)F (racemic) [Example 10, (±)-5-Cyano-3-(2-ethoxypyridin-3-yl)-2-oxo-1-(phenylsulfonyl)-2,3-dihydro-1H-indol-3-yl 4-(1-ethylpiperidin-4-yl)piperazine-1-carboxylate, trifluoroacetic acid salt]
< 10	+++ (>45)	50 to 75	++ (>25-75)	CCOc1ncccc1C1(OC(=O)N2CCC(N3CCN(CC)CC3)CC2)C(=O)N(S(=O)(=O)c2ccccc2)c2ccc(C#N)cc21 (racemic) [Example 40, (±)-5-Cyano-3-(2-ethoxypyridin-3-yl)-2-oxo-1-(phenylsulfonyl)-2,3-dihydro-1H-indol-3-yl 4-(4-ethylpiperazin-1-yl)piperidine-1-carboxylate]
< 10	++ (>25-45)	75 to 200	+++ (>75)	CCOc1ncccc1C1(OC(=O)N2CCN(C3CCN(C)CC3)CC2)C(=O)N(S(=O)(=O)c2ccc(OC)cc2)c2ccc(C#N)cc21 (racemic) [Example 5, (±)-5-Cyano-3-(2-ethoxypyridin-3-yl)-1-[(4-methoxyphenyl)sulfonyl]-2-oxo-2,3-dihydro-1H-indol-3-yl-4-(1-methylpiperidin-4-yl)piperazine-1-carboxylate]
10 to 50	+++ (>45)	< 50	++ (>25-75)	CCOc1ncccc1C1(OC(=O)N2CCN(C3CCNCC3)CC2)C(=O)N(S(=O)(=O)c2ccccc2)c2ccc(C#N)cc21 (racemic) [Example 28, (±)-5-Cyano-3-(2-ethoxypyridin-3-yl)-2-oxo-1-(phenylsulfonyl)-2,3-dihydro-1H-indol-3-yl 4-piperidin-4-ylpiperazine-1-carboxylate as bis(trifluoroacetic acid) salt]
< 10	+++ (>45)	75 to 200	+++ (>75)	CCOc1ncccc1C1(OC(=O)N2CCN(C3CCN(C)CC3)CC2)C(=O)N(S(=O)(=O)c2ccccc2OC)c2ccc(C#N)cc21 (single isomer, unassigned; (-)) [Example 2B, (−)-5-Cyano-3-(2-ethoxypyridin-3-yl)-1-[(2-methoxyphenyl)sulfonyl]-2-oxo-2,3-dihydro-1H-indol-3-yl-4-(1-methylpiperidin-4-yl)piperazine-1-carboxylate]
< 10	+++ (>45)	< 50	+++ (>75)	CCOc1ncccc1C1(OC(=O)N2CCN(C3CCN(C)CC3)CC2)C(=O)N(S(=O)(=O)c2ccccc2)c2ccc(C#N)cc21 (racemic) [Example 4, (±)-5-Cyano-3-(2-ethoxypyridin-3-yl)-2-oxo-1-(phenylsulfonyl)-2,3-dihydro-1H-indol-3-yl 4-(1-methylpiperidin-4-yl)piperazine-1-carboxylate]
< 10	++ (>25-45)	75 to 200	++ (>25-75)	CCOc1ncccc1C1(OC(=O)N2CCC(N3CCN(C)CC3)CC2)C(=O)N(S(=O)(=O)c2ccc(OC)cc2)c2ccc(C#N)cc21 (racemic) [Example 35, (±)-5-Cyano-3-(2-ethoxypyridin-3-yl)-1-[(4-methoxyphenyl)sulfonyl]-2-oxo-2,3-dihydro-1H-indol-3-yl 4-(4-methylpiperazin-1-yl)piperidine-1-carboxylate]
< 10	+++ (>45)	< 50	+++ (>75)	CCOc1ncccc1C1(OC(=O)N2CCN(C3CCN(C)CC3)CC2)C(=O)N(S(=O)(=O)c2ccccc2)c2ccc(C#N)cc21 (single isomer, unassigned; (-)) [Example 4B, (−)-5-Cyano-3-(2-ethoxypyridin-3-yl)-2-oxo-1-(phenylsulfonyl)-2,3-dihydro-1H-indol-3-yl 4-(1-methylpiperidin-4-yl)piperazine-1-carboxylate]
